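Values below derive from 48-hour exposures of cells grown in 96-well plates, with endpoints linearly interpolated between the two concentrations bracketing the appropriate inhibition level. The concentration for 50% growth inhibition is given as GI50.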 The source made the active and inactive calls. Rule as the data show it: active = GI50 up to about 1.1 µM and inactive = higher.
Assays:
Assay in all cases: growth of human tumour cells (NCI), 48 h
SNB-78 = test system: SNB-78
CAKI-1 = test system: CAKI-1
MDA-N = test system: MDA-N
LXFL 529 = test system: LXFL 529
HOP-18 = test system: HOP-18
DMS-114 = test system: DMS-114
DU-145 = test system: DU-145
XF498 = test system: XF498
RXF 631 = test system: RXF 631

For `CN(C)CCCNc1ccc2nnn3c4ccc(O)cc4c(=O)c1c23`, the GI50 (SNB-78) was 6.08 µM (inactive), the GI50 (CAKI-1) was 1.64 µM (inactive) and the GI50 (MDA-N) was 6.52 µM (inactive). The GI50 (LXFL 529) was 6.61 µM (inactive), the GI50 (HOP-18) was 9.06 µM (inactive) and the GI50 (DMS-114) was 9.18 µM (inactive). For the same compound, the GI50 (DU-145) was 5.01 µM (inactive).
For `CCCCCC1CC(C(C)=O)CN1c1ccc(F)cc1` (stereo not given), the GI50 (SNB-78) was 36.4 µM (inactive), the GI50 (LXFL 529) was 32.1 µM (inactive) and the GI50 (XF498) was 21.1 µM (inactive). The GI50 (HOP-18) was 13.1 µM (inactive) and the GI50 (DMS-114) was 20.3 µM (inactive).
With `Nc1ncnc2c1ncn2[C@@H]1O[C@H](COP(=O)(O)O)[C@@H](O)[C@@H]1O` the GI50 (SNB-78) was > 50 µM (inactive), the GI50 (CAKI-1) was > 50 µM (inactive) and the GI50 (XF498) was > 34.4 µM (inactive). The GI50 (HOP-18) was > 50 µM (inactive) and the GI50 (DMS-114) was > 50 µM (inactive).
`N#Cc1cc2c(cc1C#N)/C(=N\c1cccc(N)n1)N/C2=N\c1cccc(N)n1` was tested, and the GI50 (CAKI-1) was 15.8 µM (inactive), the GI50 (MDA-N) was 20.3 µM (inactive) and the GI50 (DU-145) was > 100 µM (inactive).
With `c1ccc2c(c1)cc1n2CC2CN=NC12` (stereo not given) the GI50 (SNB-78) was > 100 µM (inactive), the GI50 (CAKI-1) was > 100 µM (inactive) and the GI50 (RXF 631) was > 100 µM (inactive). The GI50 (LXFL 529) was > 100 µM (inactive).
`O=C(O)c1cc2c3c(c1)[C@H]1C=CC[C@H]1CN3CC1CC=CC21` (stereo not given in full) was tested, and the GI50 (SNB-78) was > 100 µM (inactive), the GI50 (CAKI-1) was > 100 µM (inactive) and the GI50 (LXFL 529) was > 100 µM (inactive). For the same compound, the GI50 (XF498) was > 100 µM (inactive), the GI50 (HOP-18) was > 100 µM (inactive) and the GI50 (DMS-114) was > 100 µM (inactive).
In the case of `COC(=O)c1ccc2c(c1)CCN2C(=O)c1cc2c(cc1Br)OCO2`, the GI50 (CAKI-1) is reported as 4.7 µM (inactive), the GI50 (MDA-N) is reported as 0.0834 µM (active) and the GI50 (DU-145) is reported as 1.71 µM (inactive).
With `O=c1cc(N2CCCC2)[nH]c(=O)n1-c1cccc(C(F)(F)F)c1` the GI50 (CAKI-1) was > 100 µM (inactive), the GI50 (MDA-N) was > 100 µM (inactive) and the GI50 (DU-145) was > 100 µM (inactive).
In the case of `C/C(=N\NC(=S)N1CCN(c2ccccn2)CC1)c1cccc(C)n1`, the GI50 (MDA-N) is reported as 3.14 µM (inactive) and the GI50 (DU-145) is reported as 2.85 µM (inactive).
For `CC(=O)OCC1OC(n2cc(F)c(=O)[nH]c2=O)C(NC(=O)OCc2ccccc2)C(OC(C)=O)C1OC(C)=O` (stereo not given), the GI50 (SNB-78) was > 100 µM (inactive), the GI50 (CAKI-1) was > 100 µM (inactive) and the GI50 (XF498) was > 100 µM (inactive). The GI50 (HOP-18) was > 100 µM (inactive) and the GI50 (DMS-114) was > 100 µM (inactive).
In the case of `COC(=O)C1=C(C(=O)OC)C(N(C)C)C(C(=O)OC)=C(C(=O)OC)S1`, the GI50 (CAKI-1) is reported as > 100 µM (inactive), the GI50 (MDA-N) is reported as > 100 µM (inactive) and the GI50 (DU-145) is reported as > 100 µM (inactive).
For `COc1cc(Nc2nc3ccc(C(F)(F)F)cc3nc2C(=O)O)cc(OC)c1OC`, the GI50 (CAKI-1) was 24.8 µM (inactive), the GI50 (MDA-N) was 19.3 µM (inactive) and the GI50 (DU-145) was 28.5 µM (inactive).
`CCc1cc2c(cc1O)CC[C@@H]1[C@@H]2CC[C@]2(C)[C@@H](O)CC[C@@H]12` was tested, and the GI50 (CAKI-1) was 4.67 µM (inactive) and the GI50 (MDA-N) was 2.07 µM (inactive).
With `COc1ccc(/C=N/NC(=O)NCCCN(C)C)cc1` the GI50 (SNB-78) was > 100 µM (inactive), the GI50 (XF498) was > 100 µM (inactive) and the GI50 (HOP-18) was > 100 µM (inactive). The GI50 (DMS-114) was > 100 µM (inactive).
In the case of `O=NN(CCCl)C(=O)NC1CCSc2ccccc21` (stereo not given), the GI50 (SNB-78) is reported as > 100 µM (inactive), the GI50 (CAKI-1) is reported as > 100 µM (inactive) and the GI50 (XF498) is reported as > 100 µM (inactive). The GI50 (HOP-18) was > 69 µM (inactive) and the GI50 (DMS-114) was 47.2 µM (inactive).
For `COC(=O)CC1(CNC(=O)OCc2ccccc2)OCCO1`, the GI50 (CAKI-1) was > 100 µM (inactive), the GI50 (MDA-N) was > 100 µM (inactive) and the GI50 (DU-145) was > 100 µM (inactive).
In the case of `N=C1OC(CN2CCN(c3ccccc3)CC2)CN1C(=S)Nc1ccccc1` (stereo not given), the GI50 (CAKI-1) is reported as 95.5 µM (inactive), the GI50 (MDA-N) is reported as 84.9 µM (inactive) and the GI50 (DU-145) is reported as > 100 µM (inactive).
For `CS(=O)(=O)OCC1=C(COS(C)(=O)=O)C(=O)c2c(O)ccc(O)c2C1=O`, the GI50 (SNB-78) was > 100 µM (inactive), the GI50 (CAKI-1) was > 100 µM (inactive) and the GI50 (RXF 631) was > 100 µM (inactive). The GI50 (LXFL 529) was > 100 µM (inactive), the GI50 (HOP-18) was > 100 µM (inactive) and the GI50 (DMS-114) was > 100 µM (inactive).
For `C=C1C(=O)C[C@@]23CCC[C@@]12CC(O)C3` (stereo not given in full), the GI50 (SNB-78) was 28.2 µM (inactive), the GI50 (CAKI-1) was > 10 µM (inactive) and the GI50 (XF498) was 22.6 µM (inactive). The GI50 (HOP-18) was 6.79 µM (inactive) and the GI50 (DMS-114) was 16.7 µM (inactive).
In the case of `CCOC(=O)/C(=N/Nc1ccc(Cl)cc1)N1C(=S)N(C)N=C(C)C=C1S`, the GI50 (CAKI-1) is reported as 54.5 µM (inactive) and the GI50 (DU-145) is reported as > 100 µM (inactive).
`[N-]=[N+]=CC(=O)OCC(N)C(=O)O` (stereo not given) was tested, and the GI50 (SNB-78) was 586 µM (inactive), the GI50 (CAKI-1) was 5.85 µM (inactive) and the GI50 (XF498) was 5.96 µM (inactive). The GI50 (HOP-18) was 625 µM (inactive) and the GI50 (DMS-114) was 1.59 µM (inactive).
For `COc1ccc2cc(/C=N/NC(=O)Nc3ccccc3)ccc2c1`, the GI50 (CAKI-1) was > 100 µM (inactive), the GI50 (MDA-N) was > 100 µM (inactive) and the GI50 (DU-145) was > 100 µM (inactive).
For `O=C(O)c1nc2ccc(C(F)(F)F)cc2[nH]c1=O`, the GI50 (CAKI-1) was > 100 µM (inactive), the GI50 (MDA-N) was > 100 µM (inactive) and the GI50 (DU-145) was > 100 µM (inactive).
In the case of `CCCCCC/C(CC(=O)CCC(=O)NCCc1ccccc1)=N\NC(=O)c1ccc2ccccc2c1O`, the GI50 (SNB-78) is reported as 67.3 µM (inactive), the GI50 (RXF 631) is reported as 61.2 µM (inactive) and the GI50 (LXFL 529) is reported as 42.1 µM (inactive). For the same compound, the GI50 (XF498) was 63 µM (inactive) and the GI50 (HOP-18) was 12.1 µM (inactive).
With `CCCCCCCNC(P(=O)(O)O)P(=O)(O)O` the GI50 (CAKI-1) was > 100 µM (inactive), the GI50 (MDA-N) was > 100 µM (inactive) and the GI50 (DU-145) was > 100 µM (inactive).
For `COc1ccc2c(c1)/C(=C/CCN(C)C)c1ccccc1S2`, the GI50 (MDA-N) was 43.3 µM (inactive) and the GI50 (DU-145) was > 100 µM (inactive).

Reference: ChEMBL document CHEMBL1201862, “PubChem BioAssay data set” (2004)
